According to patent publication US12691070B2, “Cationic lipids and preparation method thereof” (RiboX Therapeutics HK Limited, priority 2023, dated 2026):

Key:
RAW 264.7 cells [1] = assay: In vitro expression of firefly-luciferase, RAW 264.7; format: cell-based; settings: cirRNA (SEQ ID NO: 1) LNPs; firefly-luciferase luminescence; RAW 264.7 cells
Description: (§1) RAW 264.7 and Hep G2 cells were transfected with 100 ng/mL of RNA-LNPs encoding for firefly-luciferase. At 72 hours post transfection, the cells were washed and lysed. The luciferase expression was determined in the cell lysates with the luciferase assay reagent kit (Promega), according to the kit protocol, luciferase activity was measured by a luminometer.

[2] = LNP zeta potential (Zetasizer); format: physicochemical; settings: LNP with cirRNA (SEQ ID NO: 1)
Description: (§2) Ionizable lipid, DSPC, Cholesterol and DMG-PEG 2000 were mixed at a molar ratio of 50:10:38.5:1.5 in absolute ethanol. Circular RNA and linear mRNA payloads were suspended in 25 mM Acetate Buffer (pH 4.5). To form LNPs, three volumes of luciferase encoding RNA, in the form of cirRNA (SEQ ID NO:1) and mRNA (SEQ ID NO:2) respectively, were mixed with one volume of lipids in ethanol solution by microfluidic mixing with the Nanoassemblr Ignite (Precision Nanosystems) at a flow rate of 12 ml/min. The molar ratio of ionizable lipid to ribonucleotide was 15 or 6. The final lipid concentration in solution ranged from 1.5 mM to 6 mM. After encapsulation, the particles were dialyzed twice against PBS.
(§3) The LNP size and polydispersity index (PDI), determined by dynamic light scattering (DLS), and zeta potential were measured by a Zetasizer machine (Malvern). RNA concentration and encapsulation efficacy were analyzed by the Quant-IT Ribogreen kit by calculating the percentage encapsulation at 100%−(RNA-LNPs/RNA-LNPs with Triton X-100).

[3] = RNA encapsulation efficacy by Quant-IT Ribogreen kit; format: physicochemical; settings: LNP with cirRNA (SEQ ID NO: 1)
Description: as §2, §3

Hep G2 cells [4] = assay: In vitro toxicity (CellTiter-Glo cell viability), Hep G2; format: cell-based; settings: cirRNA (SEQ ID NO: 1) LNPs; Hep G2 cells;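 note: percent of untreated cells luminescence signal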
Description: (§4) RAW 264.7 and Hep G2 cells were transfected with 1 μg/mL RNA-LNPs. At 72 hours post transfection, cell viability was determined with the CellTiter-Glo® reagent kit, according to the kit protocol, measured by a luminometer.
(§5) The cell viability was calculated according to the following formula: […]

RAW 264.7 cells [5] = assay: In vitro toxicity (CellTiter-Glo cell viability), RAW 264.7; format: cell-based; settings: cirRNA (SEQ ID NO: 1) LNPs; RAW 264.7 cells;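 note: percent of untreated cells luminescence signal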
Description: as §4, §5

BALB/C mice = assay: In vivo expression, whole-body luminescence (IVIS); settings: cirRNA (SEQ ID NO: 1) LNPs, BALB/C mice
Description: 6-8 week old, female BALB/C mice were injected with 0.05 mg*kg-1 of RNA-LNPs encoding for firefly-luciferase by intravenous injection. At 6 hours post injection, animals were intraperitoneally injected with 15 mg/ml of Luciferin substrate and whole-body luminescence was determined by a bioluminescent in vivo imaging system (IVIS).

[6] = LNP size and polydispersity index (PDI) by dynamic light scattering; format: physicochemical; settings: LNP with cirRNA (SEQ ID NO: 1); for Size: in nm (unit assumed)
Description: as §2, §3

Hep G2 cells [7] = assay: In vitro expression of firefly-luciferase, Hep G2; format: cell-based; settings: cirRNA (SEQ ID NO: 1) LNPs; firefly-luciferase luminescence; Hep G2 cells
Description: as §1

Zeta (mV) [2]	Encapsulation Efficiency % [3]	PDI [6]	Size [6]	Structure (SMILES)	In vitro Expression RAW (RAW 264.7 cells [1])	In vitro Viability HepG2 (Hep G2 cells [4])	In vitro Viability RAW (RAW 264.7 cells [5])	In vivo Expression (Whole Body) (BALB/C mice)	In vitro Expression HepG2 (Hep G2 cells [7])
16.11 mV	95%	0.146	143.7	CCCCCCOC(=O)CCCCCCCCCCN(CCCCCCCCCCC(=O)OCCCCCC)CCOC(=O)NCCN(C)C [Lipid 136, hexyl 10-(11-(hexyloxy)-11-oxoundecyl)-2-methyl-6-oxo-7-oxa-2,5,10-triazahenicosan-21-oate]	1.93E+02	20%	8%	6.14E+03	2.15E+03
19.29 mV	92%	0.1423	224.1	CCCCCCOC(=O)CCCCCCCCCCN(CCCCCCCCCCC(=O)OCCCCCC)CCOC(=O)NCCCN(CC)CC [Lipid 137, hexyl 3-ethyl-12-(11-(hexyloxy)-11-oxoundecyl)-8-oxo-9-oxa-3,7,12-triazatricosan-23-oate]	1.21E+02	12%	9%	1.84E+05	1.57E+03
20.18 mV	89%	0.1693	98.37	CCCCCCCCCCCOC(=O)CCCCCN(CCCCCC(=O)OCCCCCCCCCCC)CCOC(=O)NCCN1CCCC1 [Lipid 151, diundecyl 6,6′-((2-(((2-(pyrrolidin-1-yl)ethyl)carbamoyl)oxy)ethyl)azanediyl)dihexanoate]	3.27E+01	110%	99%	1.18E+05	8.79E+03
18.95 mV	89%	0.09308	71.11	CCCCCCCCCCCOC(=O)CCCCCN(CCCCCC(=O)OCCCCCCCCCCC)CCOC(=O)NCCCN(C)C [Lipid 153]	2.44E+02	120%	104%	1.02E+05	1.95E+04
25.23 mV	90%	0.1144	75.25	CCCCCCCCCCCOC(=O)CCCCCN(CCCCCC(=O)OCCCCCCCCCCC)CCOC(=O)NCCN(C)C [Lipid 154, undecyl 2-methyl-6-oxo-10-(6-oxo-6-(undecyloxy)hexyl)-7-oxa-2,5,10-triazahexadecan-16-oate]	2.36E+03	106%	101%	1.01E+05	2.59E+05
15.16 mV	76%	0.1182	92.39	CCCCCCCCCCCOC(=O)CCCCCN(CCCCCC(=O)OCCCCCCCCCCC)CCOC(=O)NCc1ncc[nH]1 [Lipid 155, diundecyl 6,6′-((2-((((1H-imidazol-2-yl)methyl)carbamoyl)oxy)ethyl)azanediyl)dihexanoate]	5.98E+02	111%	101%	5.77E+07	2.72E+04

Further lines, the compound ahead of its results:

Structure (SMILES)	Zeta (mV) [2]	Encapsulation Efficiency % [3]	PDI [6]	Size [6]	In vitro Expression RAW (RAW 264.7 cells [1])	In vitro Viability HepG2 (Hep G2 cells [4])	In vitro Viability RAW (RAW 264.7 cells [5])	In vivo Expression (Whole Body) (BALB/C mice)	In vitro Expression HepG2 (Hep G2 cells [7])
CCCCC/C=C\C/C=C\CCCCCCCCN(CCCCCCCC(=O)OC(CCCCCCCC)CCCCCCCC)CCOC(=O)NCCN1CCN(C)CC1 [Lipid 135, heptadecan-9-yl 8-((2-(((2-(4-methylpiperazin-1-yl)ethyl)carbamoyl)oxy)ethyl)((9Z,12Z)-octadeca-9,12-dien-1-yl)amino)octanoate]	8.469 mV	100%	0.1211	150.9	9.80E+04	91%	103%	3.51E+07	2.30E+06
CCCCCCOC(=O)CCCCCCCCCCN(CCCCCCCCCCC(=O)OCCCCCC)CCOC(=O)NCCN1CCN(C)CC1 [Lipid 138, dihexyl 11,11′-((2-(((2-(4-methylpiperazin-1-yl)ethyl)carbamoyl)oxy)ethyl)azanediyl)diundecanoate]	15.82 mV	96%	0.1821	130.8	9.75E+01	12%	10%	1.30E+05	6.75E+01
CCCCCCCCC(CCCCCCCC)OC(=O)CCCCCCCN(CCCCCCCCOC(=O)C(CCCCCC)CCCCCCCC)CCOC(=O)NCCCN(C)C (stereo not drawn) [Lipid 146, heptadecan-9-yl 11-(8-((2-hexyldecanoyl)oxy)octyl)-2-methyl-7-oxo-8-oxa-2,6,11-triazanonadecan-19-oate]	20.28 mV	87%	0.2699	59.34	8.92E+04	41%	99%	4.74E+06	9.18E+05
CCCCCCCCC(CCCCCCCC)OC(=O)CCCCCCCN(CCCCCCCCOC(=O)C(CCCCCC)CCCCCCCC)CCOC(=O)NCCCn1ccnc1 (stereo not drawn) [Lipid 147, 8-((2-(((3-(1H-imidazol-1-yl)propyl)carbamoyl)oxy)ethyl)(8-(heptadecan-9-yloxy)-8-oxooctyl)amino)octyl 2-hexyldecanoate]	4.888 mV	86%	0.07303	53.54	7.92E+03	87%	65%	5.02E+07	1.60E+04
CCCCCCCCC(CCCCCCCC)OC(=O)CCCCCCCN(CCCCCCCCOC(=O)C(CCCCCC)CCCCCCCC)CCOC(=O)NCCN1CCCCC1 (stereo not drawn) [Lipid 149, 8-((8-(heptadecan-9-yloxy)-8-oxooctyl)(2-(((2-(piperidin-1-yl)ethyl)carbamoyl)oxy)ethyl)amino)octyl 2-hexyldecanoate]	9.196 mV	88%	0.02962	71.14	1.91E+04	123%	100%	6.07E+07	2.08E+05
CCCCCCCCCCCOC(=O)CCCCCN(CCCCCC(=O)OCCCCCCCCCCC)CCOC(=O)NCCN1CCCCC1 [Lipid 150, diundecyl 6,6′-((2-(((2-(piperidin-1-yl)ethyl)carbamoyl)oxy)ethyl)azanediyl)dihexanoate]	17.84 mV	79%	0.05565	91.37	6.81E+02	114%	104%	7.27E+05	1.44E+04
CCCCCCCCCCCOC(=O)CCCCCN(CCCCCCCC(=O)OC(CCCCCCCC)CCCCCCCC)CCOC(=O)NCCN(C)C [Lipid 158, heptadecan-9-yl 2-methyl-6-oxo-10-(6-oxo-6-(undecyloxy)hexyl)-7-oxa-2,5,10-triazaoctadecan-18-oate]	6.058 mV	72%	0.2315	97.72	1.37E+04	64%	0%	1.62E+07	1.24E+06
